According to patent US20190202719A1, “METHOD FOR CONTROLLING MOLLUSK POPULATIONS” (priority 2016, published 2019):
Where two headings read alike, the source gives them in different places.

What was measured:
[1] = tested on: veligers of quagga mussels; test: Efficiency in killing mollusk veligers, beaker exposure; conditions: approximately 20° C.
Method: Further testing was conducted specifically on veligers of quagga mussels collected from Lake Mead and utilizing citric acid and L-lactic acid. Trials were conducted using 2 replicate beakers per test interval at approximately 20° C. Test beakers (100 mL) were seeded with at least 200 veligers per replicate in 10 mL of veliger concentrate and filtered lake water and then dosed with 90 mL of prepared acid concentrate for each of the tested concentrations of lactic acid or citric acid. Stock acid solutions were measured by weight and added to filtered lake water to make the total volume needed. Controls were run concurrently with treatments and used filtered lake water instead of acid to add into the beaker. Exposure times included 1, 5, and 15 minutes, and 1 and 24 hours to assess mortality for the different concentrations of acids.
The exposure times were 5 minutes, 15 minutes, one hour, and 24 hours.
In the second test, the final concentrations of citric acid and L-lactic acid were 1% and 2% by weight for each acid. The exposure times were one minute and 5 minutes.

adult dreissenid mussels [2] = test: Effective pH range determination, adult mussel mortality in pH-adjusted raw lake water
Method: To find an optimal pH range at which lactic acid effectively killed adult dreissenid mussels, raw lake water was placed in 4 L water containers and aerated. The pH was adjusted in three containers to about 2.8, 4, and 6, respectively, using lactic acid. The initial water parameters (temperature 20° C., pH 7.6, dissolved oxygen (DO) 7.73, Alkalinity 90 mg/l) were monitored. A fourth container, with no pH adjustment was used for control. Twenty adult mussels of various sizes were placed in each of the three containers. […] Mortality was defined as a gaping shell with the adult mussel not responding to gentle prodding of the flesh.
The experiment was repeated with the pH adjusted to about 5.

adult dreissenid mussels [3] = conditions: pH about 4, warm water, after 72 hours

Row | Compound | veliger mortality ([1]; 0.6% by weight, one hour exposure) [%] | veliger mortality ([1]; 2% by weight, five minute exposure) [%] | mortality (adult dreissenid mussels [2]; in vivo, pH 4) [%] | shell condition (adult dreissenid mussels [2]; pH 2.8, after 48 hours) | mortality (adult dreissenid mussels [2]; pH of 6, after 48 hours) | mortality (adult dreissenid mussels [3])
1 | C[C@H](O)C(=O)O [L-lactic acid] | 99 | 86 | – | – | – | –
2 | CC(O)C(=O)O (stereo not drawn) [lactic acid] | – | – | 100 | shells were disintegrating | no mortality | complete mortality
